# Target: T1, human mGlu4 receptor (Homo sapiens, UniProt Q14833)
# T1 construct: expressed in transfected cells; host or cells: HEK-293 (monoclonal, stably transfected)
# Experiment: Ca2+ mobilization in vitro assay on recombinant human mGlu4 expressed in HEK293 cells (mGlu4 PAM)
# Format: cell-based
# Settings: for Emax: HEK293, maximal response in % of the maximal stimulatory effect obtained with saturating concentrations of L-AP4, read-out: Eff. (%); for EC50: HEK-293 cells, Ca2+ mobilization, L-AP4 added at EC20
# Description: Determination of EC50 Values Using a Ca2+ mobilization in vitro Assay on Recombinant Human mGlu4 Expressed in HEK293 cells:
# A monoclonal HEK-293 cell line stably transfected with a cDNA encoding for the human mGlu4 receptor was generated; for the work with mGlu4 Positive Allosteric Modulators (PAMs), a cell line with low receptor expression levels and low constitutive receptor activity was selected to allow the differentiation of agonistic versus PAM activity. Cells were cultured according to standard protocols (Freshney, 2000) in Dulbecco's Modified Eagle Medium with high glucose supplemented with 1 mM glutamine, 10% (vol/vol) heat-inactivated bovine calf serum, Penicillin/Streptomycin, 50 μg/ml hygromycin and 15 μg/ml blasticidin (all cell culture reagents and antibiotics from Invitrogen, Basel, Switzerland).
# About 24 hrs before an experiment, 5×10^4 cells/well were seeded in poly-D-lysine coated, black/clear-bottomed 96-well plates. The cells were loaded with 2.5 μM Fluo-4AM in loading buffer (1×HBSS, 20 mM HEPES) for 1 hr at 37° C. and washed five times with loading buffer. The cells were transferred into a Functional Drug Screening System 7000 (Hamamatsu, Paris, France), and 11 half logarithmic serial dilutions of test compound at 37° C. were added and the cells were incubated for 10-30 min. with on-line recording of fluorescence. Following this pre-incubation step, the agonist (2S)-2-amino-4-phosphonobutanoic acid (L-AP4) was added to the cells at a concentration corresponding to EC20 with on-line recording of fluorescence; in order to account for day-to-day variations in the responsiveness of cells, the EC20 of L-AP4 was determined immediately ahead of each experiment by recording of a full dose-response curve of L-AP4.
# Responses were measured as peak increase in fluorescence minus basal (i.e. fluorescence without addition of L-AP4), normalized to the maximal stimulatory effect obtained with saturating concentrations of L-AP4. Graphs were plotted with the % maximal stimulatory using XLfit, a curve fitting program that iteratively plots the data using Levenburg Marquardt algorithm. The single site competition analysis equation used was y=A+((B−A)/(1+((x/C)D))), where y is the % maximal stimulatory effect, A is the minimum y, B is the maximum y, C is the EC50, x is the log 10 of the concentration of the competing compound and D is the slope of the curve (the Hill Coefficient). From these curves the EC50 (drug concentration at which 50% of the maximal receptor activation was achieved), the Hill coefficient as well as the maximal response in % of the maximal stimulatory effect obtained with saturating concentrations of L-AP4 were calculated (see FIG. 1).
# A depression of the signal observed after addition of the EC20 concentration of L-AP4was indicative of an inhibitory activity of the test compound.
# T1 sequence (Q14833 33-912): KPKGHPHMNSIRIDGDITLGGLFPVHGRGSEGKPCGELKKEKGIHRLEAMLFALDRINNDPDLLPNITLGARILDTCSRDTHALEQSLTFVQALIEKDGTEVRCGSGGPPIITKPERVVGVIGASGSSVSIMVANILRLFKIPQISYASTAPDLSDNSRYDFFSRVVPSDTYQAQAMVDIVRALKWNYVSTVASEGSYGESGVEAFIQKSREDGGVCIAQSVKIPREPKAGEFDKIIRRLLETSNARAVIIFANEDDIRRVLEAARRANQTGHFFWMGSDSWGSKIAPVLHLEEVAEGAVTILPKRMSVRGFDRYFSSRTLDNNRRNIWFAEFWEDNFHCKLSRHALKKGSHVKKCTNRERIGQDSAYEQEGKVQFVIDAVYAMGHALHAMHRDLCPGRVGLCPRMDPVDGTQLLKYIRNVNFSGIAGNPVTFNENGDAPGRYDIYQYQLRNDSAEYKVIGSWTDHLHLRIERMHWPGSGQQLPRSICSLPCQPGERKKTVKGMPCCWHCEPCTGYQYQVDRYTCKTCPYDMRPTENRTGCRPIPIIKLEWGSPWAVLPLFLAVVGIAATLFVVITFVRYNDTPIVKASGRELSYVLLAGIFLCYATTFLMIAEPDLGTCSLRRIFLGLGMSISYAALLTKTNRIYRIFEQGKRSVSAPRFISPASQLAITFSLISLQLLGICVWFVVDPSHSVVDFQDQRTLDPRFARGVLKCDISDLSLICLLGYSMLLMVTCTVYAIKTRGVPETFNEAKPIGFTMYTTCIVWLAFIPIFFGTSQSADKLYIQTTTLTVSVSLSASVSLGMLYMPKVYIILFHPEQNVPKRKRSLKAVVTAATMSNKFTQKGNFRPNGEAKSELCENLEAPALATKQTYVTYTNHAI
SMILES,Emax [%],EC50 [nM]
"COc1ncc([C@]2(C)CC(=O)N(c3c(F)cc(C#Cc4ccccc4)cc3F)C(=O)N2C)cn1 [Example 79, (6S)-3-[2,6-Difluoro-4-(2-phenylethynyl)phenyl]-6-(2-methoxypyrimidin-5-yl)-1,6-dimethyl-hexahydropyrimidine-2,4-dione]",105,46
"CN1C(=O)N(c2c(F)cc(C#Cc3ccccc3)cc2F)C(=O)C[C@@]1(C)c1cnc(=O)[nH]c1 [Example 80, (6S)-3-[2,6-Difluoro-4-(2-phenylethynyl)phenyl]-1,6-dimethyl-6-(2-oxo-1H-pyrimidin-5-yl)hexahydropyrimidine-2,4-dione]",105,185
"CN1C(=O)N(c2c(F)cc(C#Cc3ccccc3)cc2F)C(=O)CC1(C)c1ccc(Cl)nc1 (racemic) [Example 51, (6RS)-6-(6-Chloro-3-pyridyl)-3-[2,6-difluoro-4-(2-phenylethynyl)phenyl]-1,6-dimethyl-hexahydropyrimidine-2,4-dione]",108,88
"Cc1nccc([C@]2(C)CC(=O)N(c3c(F)cc(C#Cc4ccccc4)cc3F)C(=O)N2C)n1 [Example 76, (6S)-3-[2,6-Difluoro-4-(2-phenylethynyl)phenyl]-1,6-dimethyl-6-(2-methylpyrimidin-4-yl)hexahydropyrimidine-2,4-dione]",111,103
"CN1C(=O)N(c2c(F)cc(C#Cc3ccccc3)cc2Cl)C(=O)C[C@@]1(C)c1cccnc1 [Example 71, (6S)-3-[2-Chloro-6-fluoro-4-(2-phenylethynyl)phenyl]-1,6-dimethyl-6-(3-pyridyl)hexahydropyrimidine-2,4-dione]",105,148
"CN1C(=O)N(c2c(F)cc(C#Cc3ccccc3)cc2F)C(=O)CC1(C)c1ccccc1 (racemic) [Example 13, (6RS)-3-[2,6-Difluoro-4-(2-phenylethynyl)phenyl]-1,6-dimethyl-6-phenyl-hexahydropyrimidine-2,4-dione]",119,28
"CN1C(=O)N(c2c(F)cc(C#Cc3ccccc3)cc2F)C(=O)C2CCCC21C (stereo in doubt) [Example 14, (4aRS,7aRS)-3-[2,6-Difluoro-4-(2-phenylethynyl)phenyl]-1,7a-dimethyl-4a,5,6,7-tetrahydrocyclopenta[d]pyrimidine-2,4-dione]",119,125
"CN1C(=O)N(c2c(F)cc(C#Cc3ccccc3)cc2F)C(=O)C[C@@]1(C)c1cncnc1 [Example 56, (6S)-3-[2,6-Difluoro-4-(2-phenylethynyl)phenyl]-1,6-dimethyl-6-pyrimidin-5-yl-hexahydropyrimidine-2,4-dione]",99,79
"CN1C(=O)N(c2c(F)cc(C#Cc3ccccc3)cc2F)C(=O)C[C@@]1(C)c1ccc2nccn2n1 [Example 85, (6S)-3-[2,6-Difluoro-4-(2-phenylethynyl)phenyl]-6-imidazo[1,2-b]pyridazin-6-yl-1,6-dimethyl-hexahydropyrimidine-2,4-dione]",88,57
"CN1C(=O)N(c2c(F)cc(C#Cc3ccccc3)cc2F)C(=O)C[C@@]1(C)c1cccnn1 [Example 58, (6S)-3-[2,6-Difluoro-4-(2-phenylethynyl)phenyl]-1,6-dimethyl-6-pyridazin-3-yl-hexahydropyrimidine-2,4-dione]",99,49
"CN1C(=O)N(c2c(F)cc(C#Cc3ccccc3)cc2F)C(=O)C[C@@]1(C)c1ccnc(Cl)c1 [Example 60, (6S)-6-(2-Chloro-4-pyridyl)-3-[2,6-difluoro-4-(2-phenylethynyl)phenyl]-1,6-dimethyl-hexahydropyrimidine-2,4-dione]",113,38
"CN1C(=O)N(c2ccc(C#Cc3ccccc3)cc2Cl)C(=O)CC12CCC2 [Example 5, 7-[2-Chloro-4-(2-phenylethynyl)phenyl]-5-methyl-5,7-diazaspiro[3.5]nonane-6,8-dione]",93,304
"CN1C(=O)N(c2c(F)cc(C#Cc3cccnc3)cc2F)C(=O)CC1(c1ccccc1)C(F)(F)F (racemic) [Example 72, (6RS)-3-[2,6-Difluoro-4-[2-(3-pyridyl)ethynyl]phenyl]-1-methyl-6-phenyl-6-(trifluoromethyl)hexahydropyrimidine-2,4-dione]",91,82
"CN1C(=O)N(c2c(F)cc(C#Cc3ccccc3)cc2F)C(=O)C[C@@]1(C)c1ccnnc1 [Example 61, (6S)-3-[2,6-Difluoro-4-(2-phenylethynyl)phenyl]-1,6-dimethyl-6-pyridazin-4-yl-hexahydropyrimidine-2,4-dione]",136,84
"CCn1cc([C@]2(C)CC(=O)N(c3c(F)cc(C#Cc4ccccc4)cc3F)C(=O)N2C)ccc1=O [Example 67, (6S)-3-[2,6-Difluoro-4-(2-phenylethynyl)phenyl]-6-(1-ethyl-6-oxo-3-pyridyl)-1,6-dimethyl-hexahydropyrimidine-2,4-dione]",106,56
"CN1C(=O)N(c2ccc(C#Cc3ccccc3)cc2Cl)C(=O)CC1(C)C [Example 2, 3-[2-Chloro-4-(2-phenylethynyl)phenyl]-1,6,6-trimethyl-hexahydropyrimidine-2,4-dione]",107,341
"CN1C(=O)N(c2c(F)cc(C#Cc3ccccc3)cc2F)C(=O)CC12CCCC2 [Example 6, 8-[2,6-Difluoro-4-(2-phenylethynyl)phenyl]-6-methyl-6,8-diazaspiro[4.5]decane-7,9-dione]",142,72
"CN1C(=O)N(c2c(F)cc(C#Cc3ccccc3)cc2F)C(=O)CC1(C)C(C)(C)C (racemic) [Example 44, (6RS)-6-tert-Butyl-3-[2,6-difluoro-4-(2-phenylethynyl)phenyl]-1,6-dimethyl-hexahydropyrimidine-2,4-dione]",109,66
"CN1C(=O)N(c2ccc(C#Cc3ccccc3)cn2)C(=O)CC1(C)c1ccccc1 (racemic) [Example 23, (6RS)-1,6-Dimethyl-6-phenyl-3-[5-(2-phenylethynyl)-2-pyridyl]hexahydropyrimidine-2,4-dione]",126,947
"CC(C)N1CCN2C(=O)N(c3c(F)cc(C#Cc4ccccc4)cc3F)C(=O)CC2(C)C1=O (racemic) [Example 36, (9aRS)-7-[2,6-Difluoro-4-(2-phenylethynyl)phenyl]-2-isopropyl-9a-methyl-4,9-dihydro-3H-pyrazino[1,2-c]pyrimidine-1,6,8-trione]",128,169
"CC(C)Oc1ccc([C@]2(C)CC(=O)N(c3c(F)cc(C#Cc4ccccc4)cc3F)C(=O)N2C)cn1 [Example 69, (6S)-3-[2,6-Difluoro-4-(2-phenylethynyl)phenyl]-6-(6-isopropoxy-3-pyridyl)-1,6-dimethyl-hexahydropyrimidine-2,4-dione]",95,97
"CC(C)(C)C1(C)CC(=O)N(c2c(F)cc(C#Cc3ccccc3)cc2F)C(=O)N1 (racemic) [Example 43, (6RS)-6-tert-Butyl-3-[2,6-difluoro-4-(2-phenylethynyl)phenyl]-6-methyl-hexahydropyrimidine-2,4-dione]",92,75
"CCN1C(=O)N(c2c(F)cc(C#Cc3cccnc3)cc2F)C(=O)CC1(C)c1ccccc1 (racemic) [Example 16, (6RS)-3-[2,6-Difluoro-4-[2-(3-pyridyl)ethynyl]phenyl]-1-ethyl-6-methyl-6-phenyl-hexahydropyrimidine-2,4-dione]",136,105
"CN1C(=O)N(c2c(F)cc(C#Cc3ccccc3)cc2F)C(=O)C[C@@]1(C)c1cnc2c(ccn2C)c1 [Example 84, (6S)-3-[2,6-Difluoro-4-(2-phenylethynyl)phenyl]-1,6-dimethyl-6-(1-methylpyrrolo[2,3-b]pyridin-5-yl)hexahydropyrimidine-2,4-dione]",114,40
"CN1CCN2C(=O)N(c3c(F)cc(C#Cc4ccccc4)cc3F)C(=O)CC2(C)C1=O (racemic) [Example 35, (9aRS)-7-[2,6-Difluoro-4-(2-phenylethynyl)phenyl]-2,9a-dimethyl-4,9-dihydro-3H-pyrazino[1,2-c]pyrimidine-1,6,8-trione]",131,158

# Reference: patent publication US9725416B2, “Ethynyl derivatives” (Hoffmann-La Roche Inc., priority 2014, dated 2017)
